From patent US12435066B2, “Substituted tricyclic compounds” (LUPIN LIMITED, priority 2019, dated 2025)

Assays:
pERK in DLD1 cells = assay: ERK phosphorylation assay after EGF stimulation; assay type: cell-based; settings: Homo sapiens, DLD-1, compound 2 h, 200 ng/ml hEGF 5 minutes, alphascreen pERK, read-out: ERK phosphorylation inhibition IC50
Experimental: Example-128: ERK Phosphorylation Assay Protocol
Compounds were tested for their ability to inhibit pERK after EGF stimulation in DLD1 cells. Cells were seeded at 0.2 million cells per well in 96 well cell binding tissue culture plate in 100 μL complete media and were allowed to settle overnight (16 to 20 h). On the following day, cells were treated with various concentrations of test compounds for 2 h followed by stimulation with 200 ng/ml hEGF (diluted in PBS) for 5 minutes. Cells were then washed once with PBS and lysed in freshly prepared lysis buffer (provided with alphascreen surefire ERK1/2 p-T202/Y204 assay kit, cat no: TGRESB10K, Perkin Elmer). Lysis was carried out in plate shaker for 10-15 mins. Lysate was transferred to […] white opti-plate (Perkin Elmer) and alphascreen for pERK was carried out as per manufacturer's instructions. Plate was read after 2 h incubation in plate shaker at […] 300 RPM, 25-28° C.

hSOS1 and hKRASG12C = target: T1, hSOS1 and hKRASG12C (Homo sapiens, UniProt Q07889); assay: biochemical
T1 sequence (Q07889 564-1049): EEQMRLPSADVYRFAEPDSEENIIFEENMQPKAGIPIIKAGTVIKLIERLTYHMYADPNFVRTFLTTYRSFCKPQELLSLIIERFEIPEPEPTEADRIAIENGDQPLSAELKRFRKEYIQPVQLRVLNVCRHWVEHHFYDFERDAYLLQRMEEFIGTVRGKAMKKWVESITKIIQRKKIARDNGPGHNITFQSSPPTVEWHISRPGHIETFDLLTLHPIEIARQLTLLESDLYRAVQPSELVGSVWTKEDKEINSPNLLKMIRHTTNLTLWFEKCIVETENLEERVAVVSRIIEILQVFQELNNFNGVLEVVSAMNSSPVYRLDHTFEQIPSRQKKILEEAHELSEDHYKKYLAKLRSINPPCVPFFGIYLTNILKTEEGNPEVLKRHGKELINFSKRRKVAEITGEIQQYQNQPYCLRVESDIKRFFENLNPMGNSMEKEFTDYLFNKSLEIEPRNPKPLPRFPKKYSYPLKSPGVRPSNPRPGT

[1] = target: T2, hSOS1 mediated nucleotide exchange on hKRASG12C (Homo sapiens, UniProt Q07889); assay: biochemical
T2 sequence (Q07889 564-1049): T1 sequence (Q07889 564-1049)
Experimental: Example-127: Guanine Nucleotide Exchange Assay (GNEA)
GNEA assay was conducted to evaluate the effects of compounds on the nucleotide exchange on hKRASG12C mediated by hSOS1. Inhibitory effect of compounds on HIS-hSOS1, 564-1049aa mediated GTP loading onto GST-hKRASG12C, 1-169aa both expressed and purified in-house was assessed using HTRF detection technology in biochemical assay. Compounds were pre-incubated with hSOS1 working solution containing 10-50 nM hSOS1 and 200 nM EDA-GTP-DY-647P1 (Custom manufactured, Jena Biosciences) per well of a 384 well plate (Perkin Elmer, Cat #6007290) for 10 min at 20° C. in the assay buffer containing 10 mM HEPES, pH 7.4, 150 mM NaCl, 5 mM MgCl2, 1 mM DTT, 0.05% BSA fraction V and 0.0025% Igepal. Reaction was initiated by adding working solution of hKRASG12C containing 25-125 nM hKRASG12C and MAb Anti-GST-Tb (#61GSTTLA, Cisbio BioAssays) in assay buffer. Total assay volume was 15 μL. Reaction was continued for 30-60 min at 20° C. HTRF signal was recorded in PHERAStar microplate reader. Ratio of signal obtained at 665 nm and 620 nm was used to compute the percent inhibition of compound as follows.
Where, Positive control=hSOS1+EDA-GTP-DY-647P1+hKRASG12C+MAb Anti-GST-Tb Negative control=EDA-GTP-DY-647P1+hKRASG12C+MAb Anti-GST-Tb

SMILES | IC50 (pERK in DLD1 cells) [nM] | IC50 (hSOS1 and hKRASG12C) [nM] | IC50 [1] [nM]
Cc1nc(N[C@H](C)c2cc(N)cc(C(F)(F)F)c2)c2cc(N3CC4(COC4)C3)c3c(c2n1)CCC3 [Compound 33, (R)—N-(1-(3-amino-5-(trifluoromethyl)phenyl)ethyl)-2-methyl-6-(2-oxa-6-azaspiro[3.3]heptan-6-yl)-8,9-dihydro-7H-cyclopenta[h]quinazolin-4-amine] | 1 to 200 | 1 to 10 | 1 to 30
Cc1nc(N[C@H](C)c2cccc(C(F)(F)C(C)(C)O)c2F)c2cc(C3(O)CCOCC3)c3c(c2n1)CCC3 [Compound 119, (R)-4-(4-((1-(3-(1,1-difluoro-2-hydroxy-2-methylpropyl)-2-fluorophenyl)ethyl)amino)-2-methyl-8,9-dihydro-7H-cyclopenta[h]quinazolin-6-yl)tetrahydro-2H-pyran-4-ol] | 1 to 200 | 11 to 20 | 31 to 70
COC[C@H]1CN(c2cc3c(N[C@H](C)c4cccc(C(F)(F)CO)c4F)nc(C)nc3c3c2CCC3)CCO1 [Compound 35, 2,2-difluoro-2-(2-fluoro-3-((R)-1-((6-((R)-2-(methoxymethyl)morpholino)-2-methyl-8,9-dihydro-7H-cyclopenta[h]quinazolin-4-yl)amino)ethyl)phenyl)ethan-1-ol] | 1 to 200 | 1 to 10 | 1 to 30
COC[C@H]1CN(c2cc3c(N[C@H](C)c4cccc(C(F)(F)C(C)(C)O)c4F)nc(C)nc3c3c2CCC3)CCO1 [Compound 62, 1,1-difluoro-1-(2-fluoro-3-((R)-1-((6-((R)-2-(methoxymethyl)morpholino)-2-methyl-8,9-dihydro-7H-cyclopenta[h]quinazolin-4-yl)amino)ethyl)phenyl)-2-methylpropan-2-ol] | 1 to 200 | 1 to 10 | 1 to 30
Cc1nc(NC(C)c2cc(N)cc(C(F)F)c2)c2cc(N3CCOCC3)c3c(c2n1)CCC3 (single isomer, unassigned) [Compound 77, (R/S)—N-(1-(3-amino-5-(difluoromethyl)phenyl)ethyl)-2-methyl-6-morpholino-8,9-dihydro-7H-cyclopenta[h]quinazolin-4-amine] | 1 to 200 | 1 to 10 | 
Cc1nc(N[C@H](C)c2cc(N)cc(C(F)(F)F)c2)c2cc(O[C@H]3CCOC3)c3oc(C)cc3c2n1 [Compound 111] | 201 to 500 | 11 to 20 | 
Cc1nc(N[C@H](C)c2cc(N)cc(C(F)(F)F)c2)c2cc(N3CCC(O)CC3)c3c(c2n1)CCC3 [Compound 48, (R)-1-(4-((1-(3-amino-5-(trifluoromethyl)phenyl)ethyl)amino)-2-methyl-8,9-dihydro-7H-cyclopenta[h]quinazolin-6-yl)piperidin-4-ol] | 1 to 200 | 1 to 10 | 1 to 30
Cc1nc(N[C@H](C)c2cc(N)cc(C(F)(F)F)c2)c2cc(N3C[C@@H](C)O[C@@H](C)C3)c3c(c2n1)CCC3 [Compound 17, N—((R)-1-(3-amino-5-(trifluoromethyl)phenyl)ethyl)-6-((2S,6R)-2,6-dimethylmorpholino)-2-methyl-8,9-dihydro-7H-cyclopenta[h]quinazolin-4-amine] |  | 11 to 20 | 
Cc1nc(N[C@H](C)c2cc(N)cc(C(F)(F)F)c2)c2cc(N3CC4(COC4)C3)c3c(c2n1)CC(C)(C)O3 [Compound 114, (R)—N-(1-(3-amino-5-(trifluoromethyl)phenyl)ethyl)-2,8,8-trimethyl-6-(2-oxa-6-azaspiro[3.3]heptan-6-yl)-8,9-dihydrofuro[2,3-h]quinazolin-4-amine] | 1 to 200 | 1 to 10 | 31 to 70
COc1cc2c(N[C@H](C)c3cc(N)cc(C(F)(F)F)c3)nc(C)nc2c2c1CCC2 [Compound 108, (R)—N-(1-(3-amino-5-(trifluoromethyl)phenyl)ethyl)-6-methoxy-2-methyl-8,9-dihydro-7H-cyclopenta[h]quinazolin-4-amine] |  | 1 to 10 | 
Cc1cc(N)cc(C(C)Nc2nc(C)nc3c4c(c(N5CC6(COC6)C5)cc23)CCC4)c1 (single isomer, unassigned) [Compound 20, N-(1-(3-amino-5-methylphenyl)ethyl)-2-methyl-6-(2-oxa-6-azaspiro[3.3]heptan-6-yl)-8,9-dihydro-7H-cyclopenta[h]quinazolin-4-amine] | 201 to 500 | 1 to 10 | 
COC[C@H]1CN(c2cc3c(N[C@H](C)c4cc(N)cc(C(F)(F)F)c4)nc(C)nc3c3c2CCC3)CCO1 [Compound 27, N—((R)-1-(3-amino-5-(trifluoromethyl)phenyl)ethyl)-6-((R)-2-(methoxymethyl)morpholino)-2-methyl-8,9-dihydro-7H-cyclopenta[h]quinazolin-4-amine] | 1 to 200 | 1 to 10 | 
Cc1nc(N[C@H](C)c2cc(N)cc(C(F)(F)F)c2)c2cc(NC3COC3)c3c(c2n1)CCC3 [Compound 28, (R)—N^4-(1-(3-amino-5-(trifluoromethyl)phenyl)ethyl)-2-methyl-N^6-(oxetan-3-yl)-8,9-dihydro-7H-cyclopenta[h]quinazoline-4,6-diamine] |  | 1 to 10 | 31 to 70
Cc1nc(N[C@H](C)c2cccc(C(F)(F)CO)c2F)c2cc(N3CC[C@@H](O)C3)c3c(c2n1)CCC3 [Compound 30, (R)-1-(4-(((R)-1-(3-(1,1-difluoro-2-hydroxyethyl)-2-fluorophenyl)ethyl)amino)-2-methyl-8,9-dihydro-7H-cyclopenta[h]quinazolin-6-yl)pyrrolidin-3-ol] | 1 to 200 | 1 to 10 | 1 to 30
Cc1nc(N[C@H](C)c2cc(N)cc(C(F)(F)F)c2)c2cc(NC3CCOCC3)c3c(c2n1)CCC3 [Compound 21, (R)—N^4-(1-(3-amino-5-(trifluoromethyl)phenyl)ethyl)-2-methyl-N^6-(tetrahydro-2H-pyran-4-yl)-8,9-dihydro-7H-cyclopenta[h]quinazoline-4,6-diamine] | 201 to 500 | 11 to 20 | 
Cc1nc(N[C@H](C)c2cc(N)cc(C(F)(F)F)c2)c2cc(N[C@H]3CCOC3)c3c(c2n1)CCC3 [Compound 19, N^4—((R)-1-(3-amino-5-(trifluoromethyl)phenyl)ethyl)-2-methyl-N^6—((S)-tetrahydrofuran-3-yl)-8,9-dihydro-7H-cyclopenta[h]quinazoline-4,6-diamine] | 1 to 200 | 1 to 10 | 
Cc1nc(N[C@H](C)c2cc(N)cc(C(F)(F)F)c2)c2cc(O[C@H]3CCOC3)c3c(c2n1)CC(C)(C)O3 [Compound 112, N—((R)-1-(3-amino-5-(trifluoromethyl)phenyl)ethyl)-2,8,8-trimethyl-6-(((S)-tetrahydrofuran-3-yl)oxy)-8,9-dihydrofuro[2,3-h]quinazolin-4-amine] | 1 to 200 | 11 to 20 | 
Cc1nc(N[C@H](C)c2cc(N)cc(C(F)(F)F)c2)c2cc(N3CCN(C)CC3)c3c(c2n1)CCC3 [Compound 46, (R)—N-(1-(3-amino-5-(trifluoromethyl)phenyl)ethyl)-2-methyl-6-(4-methylpiperazin-1-yl)-8,9-dihydro-7H-cyclopenta[h]quinazolin-4-amine] |  | 1 to 10 | 
Cc1nc(N[C@H](C)c2cc(N)cc(C(F)(F)F)c2)c2cc(O[C@H]3CCOC3)c3c(c2n1)CCC3 [Compound 109, N—((R)-1-(3-amino-5-(trifluoromethyl)phenyl)ethyl)-2-methyl-6-(((S)-tetrahydrofuran-3-yl)oxy)-8,9-dihydro-7H-cyclopenta[h]quinazolin-4-amine] | 201 to 500 | 11 to 20 | 
Cc1nc(N[C@H](C)c2cc(N)cc(C(F)(F)F)c2)c2cc(C3CCN(C)CC3)c3c(c2n1)CCC3 [Compound 101, (R)—N-(1-(3-amino-5-(trifluoromethyl)phenyl)ethyl)-2-methyl-6-(1-methylpiperidin-4-yl)-8,9-dihydro-7H-cyclopenta[h]quinazolin-4-amine] | 1 to 200 | 1 to 10 | 
COC1CCN(c2cc3c(N[C@H](C)c4cc(N)cc(C(F)(F)F)c4)nc(C)nc3c3c2CCC3)CC1 [Compound 1, (R)—N-(1-(3-amino-5-(trifluoromethyl)phenyl)ethyl)-6-(4-methoxypiperidin-1-yl)-2-methyl-8,9-dihydro-7H-cyclopenta[h]quinazolin-4-amine] | 1 to 200 | 11 to 20 | 
Cc1nc(N[C@H](C)c2cc(N)cc(C(F)(F)F)c2)c2cc(N3CCOCC3)c3c(c2n1)CC(C)O3 (single isomer, unassigned) [Compound 117b] | 1 to 200 | 11 to 20 | 
Cc1nc(N[C@H](C)c2cc(N)cc(C(F)(F)F)c2)c2cc(N3CC[C@@H](O)C3)c3c(c2n1)CCC3 [Compound 44, (R)-1-(4-(((R)-1-(3-amino-5-(trifluoromethyl)phenyl)ethyl)amino)-2-methyl-8,9-dihydro-7H-cyclopenta[h]quinazolin-6-yl)pyrrolidin-3-ol] | 1 to 200 | 11 to 20 | 
